Laboratory results taken from a melting point compilation (Tetko et al.; mined from patent text by program, amines drawn as free bases though some values may be those of a salt).

Row | SMILES | melting point [°C]
1 | CCCCc1c(Cl)nc(N)nc1-c1cc2ccccc2o1 | 195 to 196
2 | COC(=O)NC1CN(C(=O)Nc2ccc(OC(F)(F)F)cc2)NC1c1ccc(Cl)cc1 (configuration not stated) | 107 to 114
3 | CC(C)(C)c1cc(-c2c[nH]c(=S)[nH]2)cc(C(C)(C)C)c1O | 168 to 170
4 | CCOC(=O)c1cn(Cc2ccccc2OC)c2sc(-c3ccc(OC)cc3)c(CBr)c2c1=O | 200 to 201
5 | CCOC(=O)CC(=O)Nc1ccc(NC(=O)CC(=O)OCC)c([N+](=O)[O-])c1 | 96 to 97
6 | CCCCCCCCCCCCCCCCOCC(O)CCSCCCN(C)C (configuration not stated) | 30 to 32
7 | CC12CCC(=O)C=C1CCC(=Cc1cccs1)C2=O (configuration not stated) | 107
8 | CC(C)NC(=O)Nc1cc(C(C)(C)C)on1 | 135 to 138
9 | Clc1cccc2c1CNC2 | 48 to 50
10 | Cc1c(C)c2c(c(C)c1O)CCC(C)(CC(=O)N(C)C)O2 (configuration not stated) | 142
11 | COC(=O)NC1(c2ccc(C(C)C)cc2OC)C(=O)c2ccccc2C1=O | 153 to 155
12 | S=C1CN=C(c2ccccc2Cl)c2cc(CCc3ccccc3)sc2N1 | 175 to 176
13 | COc1ccc2c(c1)C(=NO)CCCO2 | 103 to 104
14 | CCCCn1nc(Cc2ccc(-c3ccccc3-c3nnn[nH]3)cc2)c(C(=O)O)c1CC | 191 to 192
15 | CCCCS(=O)(=O)c1ccc(CCc2nccn3c(CC#N)ccc23)cc1 | 188 to 190
16 | Cc1cc(C(=O)O)n(-c2ccc(C=Cc3ccccc3)c(C#N)c2)n1 | 226
17 | O=S(=O)(N[C@H](CO)[C@@H](c1cc(F)cc(F)c1)C(F)(F)F)c1ccc(Cl)s1 | 126
18 | CCc1cc2c(ccc(=O)n2Cc2ccc(-c3ccccc3S(N)(=O)=O)cc2)c(CC)n1 | 199 to 200
19 | CNC(=O)N(C)C1c2ccccc2Oc2ccccc21 | 173 to 174
20 | O=C(Cc1ccc2c(c1)OCO2)N[C@H]1CC[C@H](CCN2CCC(c3cccc4c3CCO4)CC2)CC1 | 209
21 | CC(C)(C)OC(=O)NC(Cc1ccccc1)C(=O)Oc1ccc2ccccc2c1 (configuration not stated) | 118 to 119
22 | CCOc1cc(C(CC(=O)OC)N2C(=O)c3cccc(N)c3C2=O)ccc1OC (configuration not stated) | 134 to 136
23 | O=C1C(Cc2ccccc2)SC(=S)N1c1nc2ccccc2s1 (configuration not stated) | 187 to 189
24 | CC1CCC(N2c3ccccc3Oc3ccccc32)=N1 (configuration not stated) | 135 to 137
25 | COCCOc1ccccc1S(=O)(=O)NC(=O)Nc1nc(C)cc(OC)n1 | 160 to 162

Row | SMILES | melting point [°C]
26 | COc1ccccc1C1(CC(=O)O)C(=O)Nc2cc(Cl)c(Cl)cc21 (configuration not stated) | 222 to 224
27 | OC1CCc2cc(Cl)c(Cl)cc2C1 (configuration not stated) | 103 to 105
28 | Cc1nnc(-c2cc3c(OC[C@@H](O)CN4CCC(c5cccc6ccccc56)CC4)cccc3[nH]2)o1 | 203 to 205
29 | O=C1N[C@H](c2ccco2)[C@@H]1O | 133 to 135
30 | COC(=O)C1CN(C)CCC1c1ccc(F)cc1 (configuration not stated) | 88 to 89
31 | O=C1CSC(=S)N1N=c1sc2ccccc2s1 | 295 to 300
32 | COc1ccc(-c2cc(=S)n(Cc3ccc(F)cc3)nc2-c2ccc(OC)cc2)cc1 | 137 to 138
33 | COc1nc(N)nc2c1CCC2 | 134 to 135
34 | CN(CCOCC(=O)OC(C)(C)C)C(=O)c1c(-c2ccc(C(C)(C)C)cc2)n(C)n(-c2ccc(C#N)cc2)c1=O | 218 to 222
35 | CCCCCCc1nc2cc3c(cc2[nH]1)NC(=O)C3(C)C | 233 to 234
36 | O=C(Nc1cccc(Oc2ccccn2)c1)c1ccn2c1CSC2c1cccnc1 (configuration not stated) | 132
37 | CCOC(=O)C=Cc1ccc(Cl)cc1NS(=O)(=O)c1ccc(C)cc1 | 124 to 127
38 | NC(c1ccccc1)C12CC(CN1)C2 (configuration not stated) | 46.5 to 47
39 | Oc1cc2c(cc1O)OCC(c1cccc(C(F)(F)F)c1)C2 (configuration not stated) | 139 to 141
40 | COc1cccc(C23CCN(C(=O)c4ccccc4)CC2CCC(=O)C3)c1 (configuration not stated) | 78
41 | CCc1nc2c(C)cc(C)nc2n1Cc1ccc(C(CC(=O)NS(=O)(=O)c2ccccc2)c2ccccc2)cc1 (configuration not stated) | 81 to 86
42 | CCC(=NO)C1=CCCN(Cc2ccccc2)C1 | 111 to 112
43 | CCOC(=O)Nc1ccc(C(c2ccccc2)n2ccnc2)cc1C=O (configuration not stated) | 107
44 | Cc1ccc2c(c1)c(N1CCN(C(=O)c3cccs3)CC1)c(C#N)c(=O)n2CCN(C)C | 110 to 117
45 | CCOC(=O)c1cnc(N2CCn3ccnc3C2)nc1NCc1ccc(OC)c(Cl)c1 | 179 to 182
46 | Cc1cc(-c2cccc(C(F)(F)F)c2)c2ncc(OC(F)F)nc2c1 | 105 to 106
47 | CCCS(=O)c1c2ccccc2nc2c1c(C)nn2-c1ccccn1 (configuration not stated) | 125 to 127
48 | CC(C)(C)c1nn(-c2c(Cl)cc(C(F)(F)F)cc2Cl)c(N)c1Br | 228 to 231
49 | NC(=O)c1ccc2c([N+](=O)[O-])cc3c(c2c1)C(CCl)CN3 (configuration not stated) | > 300
50 | CN(C)CCNc1nc(Nc2cccc(NS(C)(=O)=O)c2)nc2[nH]cnc12 | 191 to 195

Row | SMILES | melting point [°C]
51 | CCc1nnc(NC(=O)C2c3ccccc3Oc3ccccc32)o1 | 256 to 257
52 | CON(c1ccc(SC)cc1[N+](=O)[O-])S(=O)(=O)c1ccc(C)cc1 | 110 to 111
53 | COC(=O)CCNc1cccc(CNC(=O)C2Cc3ccccc3N2S(=O)(=O)c2ccc(-c3cccc(C(F)(F)F)c3)cc2)c1 (configuration not stated) | 57
54 | CNc1cccc2c1C(=O)c1ccccc1C2=O | 172
55 | CC(=O)C(O)C1OC(n2cc(Br)c(=O)[nH]c2=O)CC1(O)C(C)=O (configuration not stated) | 116 to 120
56 | Cc1nn(C)c(O)c1C(=O)c1ccc(S(C)(=O)=O)c(-c2cnco2)c1Cl | 236 to 241
57 | CCOC(=O)c1cnc2cc(OC)c(OC)cc2c1Cl | 147 to 150
58 | CC(C)c1ccc2c(c1)C(C(=O)O)c1ccccc1CO2 (configuration not stated) | 161 to 162
59 | Cc1ccc(C(O[Si](C)(C)C(C)(C)C)C(=O)NCCO)cc1 (configuration not stated) | 69 to 70
60 | Cc1cc(C)cc(-c2c(-c3ccncc3)sc3nc(=O)cc(N)n23)c1 | 275 to 278
61 | C=CCCn1cc(Br)cnc1=O | 127 to 128
62 | CC/C(=C(\c1ccc(/C=C/C(=O)O)cc1)c1ccc(OP(=O)(O)O)cc1)c1ccccc1 | 181 to 183
63 | O=C(Nc1ccc(Oc2cccc3c2CCC3=O)nc1)c1ccc(Cl)c(Cl)c1 | 202 to 204
64 | COc1ccc2[nH]c(C)c(/C=C/C(=O)c3cccnc3)c2c1 | 193 to 195
65 | Nc1nc2ccc(S(=O)(=O)n3c(CCC(=O)O)cc4cc(Cl)ccc43)cc2o1 | 242 to 249
66 | O=C(NC1CCN(CCCOC(=O)c2ccccc2)CC1)c1ccccc1 | 146 to 147
67 | C=C1SC(SCc2ccccc2C(=COC)C(=O)OC)=NC1(C)C | 101
68 | CC(C)(C)c1ccc(Cn2ccc3ccc(-c4ccc(C(F)(F)F)cc4)cc32)cc1 | 134 to 135
69 | COc1ccc(N2CCN(c3ccc(N(C)C4=NC(C)(C)CS4)cc3)CC2)cc1 | 167
70 | C[C@H]1[C@@H](O)C(F)(F)C(=O)N1c1ccc(C#N)c(C(F)(F)F)c1 | 128 to 131
71 | N#CC1CCCc2c(C(=O)O)cccc21 (configuration not stated) | 177 to 179
72 | COc1ccc(C(=C(CCBr)c2ccccc2)c2ccccc2)cc1 | 116 to 118
73 | Fc1ccccc1CSc1nc2cnccc2[nH]1 | 186 to 188
74 | Cc1cc(-c2cc(C(F)F)nn2-c2ccc(S(C)(=O)=O)c(F)c2)ccc1-c1cscn1 | 123
75 | COc1cc(CP(=O)(OC)OC)c2c(CP(=O)(OC)OC)cc(OC)cc2c1 | 135 to 136

Row | SMILES | melting point [°C]
76 | CCc1csc(-n2cc(C)cc2-c2ccc(S(N)(=O)=O)cc2)c1 | 139 to 141
77 | Nc1cc(-n2cc(C(=O)O)c(=O)c3cc(F)c(Cl)nc32)ccc1F | > 270
78 | CCCn1c(=O)c2c(nc(C=Cc3cc(C)c(C)cc3S(=O)(=O)O)n2C)n(CCC)c1=O | > 280
79 | CNC(=O)N1C(=O)C(=O)c2cc(F)ccc21 | 230 to 232
80 | CNc1ccc(C(=O)Nc2ccccc2[N+](=O)[O-])cc1 | 187
81 | O=C(N[C@H](Cc1ccc(CC(F)(F)C(F)(F)F)cc1)[C@@H](O)c1cccc(Cl)c1)c1cccc2c(Cl)cccc12 (racemic) | 216 to 217
82 | CC(O)c1cc(C#C[Si](C)(C)C)c(O)c(Cl)n1 (configuration not stated) | 97 to 98
83 | Cc1nc(-c2ccc(Cl)cc2)c(CC(=O)O)o1 | 215 to 216
84 | Cn1c(=O)cc(-c2nc(-c3ccccc3)cs2)c2cc(C(c3ccc(Cl)cc3)c3cnc(-c4ccccc4)[nH]3)ccc21 (configuration not stated) | 190
85 | O=C(Nc1ccc([N+](=O)[O-])cc1)C(=O)N1CCC(Cc2ccc(F)cc2)CC1 | 157 to 159
86 | CCCc1c(OCc2cc(Br)cn3c(=O)c(CCC(=O)O)cnc23)ccc(C(C)=O)c1O | 239 to 242
87 | CCc1nc(=O)[nH]c2cc(OC)c(OC)cc12 | 263 to 265
88 | CC(Cc1c[nH]c2ccccc12)(NC(=O)OC(CF)C(F)F)C(=O)NCCc1ccccn1 (configuration not stated) | 65 to 67
89 | O=c1[nH]ncn1C(c1cccc(Cl)c1)c1ccnc2ccccc12 (configuration not stated) | 244
90 | COC(=O)C(C(C)C)N(C)S(=O)(=O)c1ccc(-c2ccc(NC(=O)c3cc4ccccc4o3)cc2)cc1 (configuration not stated) | 67 to 69
91 | CCCCN(c1nc(N2CCOCC2)nc(N(CCCC)C2CC(C)(C)N(OC3CCCCC3)C(C)(C)C2)n1)C1CC(C)(C)N(OC2CCCCC2)C(C)(C)C1 | 159 to 163
92 | CN(C)CCNC(=O)c1ccc(OCc2ccc(-c3ccccc3)cc2)nc1 | 151 to 154
93 | CCCCCCCCCC(=O)Nc1ccc(S(=O)(=O)Nc2nnc(CC)s2)cc1 | 121 to 122
94 | CCOC(=O)COc1ccc(-c2nn(-c3ccccc3)c3ncccc23)cc1 | 118 to 120
95 | CCc1c(N(C(C)=O)c2cc(C)cc(C)c2)[nH]c(=O)[nH]c1=O | 238 to 239
96 | COc1ccccc1Oc1c(Cl)nc(-c2ccoc2)nc1NS(=O)(=O)c1ccc(C(C)(C)C)cc1 | > 300
97 | Cc1cccc(-c2ccc(C(=O)N3Cc4cccn4Cc4ccccc43)cc2)c1 | 128 to 130
